Here are results for three compounds from patent USRE46228E1, “Pigmentation-regulating compounds” (LIPOTEC, S.A., priority 2007, dated 2016).

One experiment relates to mushroom tyrosinase. The experiment in a line: Activity assay on the action of mushroom tyrosinase in vitro (L-Dopa substrate, melanin read at 492 nm). The class given is biochemical. As to conditions: melanin formed normalized to control sample (100), 10 min at 37° C. On the procedure:
The assay is performed in 96 well plates and the samples are performed in triplicate. The control sample contains 80 μL of buffer (150 mM HEPES), 10 μL of mushroom tyrosinase of 10 μg/μL and 10 μL of 10 mM L-Dopa substrate. […] The samples thus prepared are incubated at 37° C. for 10 minutes. Then the plate containing the samples is cooled for 5 minutes on ice to stop the enzymatic reaction. To quantify the melanin produced it is measured in the plate reader at a length of 492 nm.

Experiment [1] concerns the target T1, endogenous tyrosinase extracted from human melanocytes (Homo sapiens, UniProt P14679).
T1 construct: The endogenous tyrosine of the human melanocytes seeded at a confluence of 95% is extracted; endogenous in cells; host or cells: human melanocytes (cultured; extract used)
T1 sequence (P14679 19-529): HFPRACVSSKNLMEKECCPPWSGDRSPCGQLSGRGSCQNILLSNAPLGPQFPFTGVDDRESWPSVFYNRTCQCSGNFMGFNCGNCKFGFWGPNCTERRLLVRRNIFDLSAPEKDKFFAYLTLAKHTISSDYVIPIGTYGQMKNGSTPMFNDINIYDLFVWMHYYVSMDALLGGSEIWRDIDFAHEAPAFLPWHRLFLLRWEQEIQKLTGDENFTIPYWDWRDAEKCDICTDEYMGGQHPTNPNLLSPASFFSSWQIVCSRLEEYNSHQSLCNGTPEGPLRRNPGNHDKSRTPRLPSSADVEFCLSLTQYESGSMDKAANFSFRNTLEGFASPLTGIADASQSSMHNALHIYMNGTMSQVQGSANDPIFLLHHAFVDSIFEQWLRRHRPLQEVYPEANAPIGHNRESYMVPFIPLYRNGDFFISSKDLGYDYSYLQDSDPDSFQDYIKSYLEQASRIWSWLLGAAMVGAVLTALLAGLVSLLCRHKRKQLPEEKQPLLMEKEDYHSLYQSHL
The experiment in a line: Activity assay on endogenous tyrosinase extracted from human melanocytes (L-Dopa substrate, absorbance 475 nm). The class given is biochemical. As to conditions: 1 mM compound; 30 min incubation with enzyme; one hour after adding L-Dopa; relative to control (100). On the procedure:
The human melanocytes are cultured in DMEM medium supplemented with 10% FBS, 1% penicillin/streptomycin and 100 nM PMA. […] The endogenous […] of the human melanocytes seeded at a confluence of 95% is extracted. The assay is performed after extracting and quantifying the enzymatic content. […] To check the enzymatic activity after the treatment, the synthetic L-Dopa (10 mM) substrate is added, measuring absorbance at a wavelength of 475 nm one hour after having added L-Dopa. This measurement allows evaluating the melanin content produced.

The test system of another experiment is human melanocytes. The experiment in a line: Depigmenting efficacy in human melanocyte cultures (microscopy count of melanin-containing cells). As to conditions: 0.1 mM compound, 5 days, fresh medium daily; normalized to control sample (0). The class given is cell-based. On the procedure: The melanin content was is seen directly by means of microscopy using a 40 magnification lens. The depigmenting efficacy was is determined by counting the number of cells containing melanin and the total number of cells, and the obtained results were are normalized in relation to the whitening efficacy of a control sample.

The test system of a further experiment is human keratinocytes. In words: Photoprotecting efficacy in human keratinocyte cultures (solar simulation irradiation, Neutral Red viability). The class given is cell-based. As to conditions: 150 μg/mL. On the procedure:
The human keratinocytes were maintained in culture for 24 hours in 96 well plates to form monolayers and the cells were pre-incubated in the dark with 150 μg/mL of 7-methoxy-6-palmitoyl-2,2-dimethylchromane or saline phosphate buffer (control) for one hour at 37° C. and humidified air with 5% CO2. The cells were then irradiated with a solar simulation lamp with an energy of 37 J/cm^2 at room temperature for 150 minutes. A control plate was maintained in the dark for the same time at room temperature. The medium of the cells was replaced after the irradiation period with fresh medium and the cells were incubated for 24 additional hours. The cell viability was determined by means of the Neutral Red dye, measuring the optical density at 540 nm in a spectrophotometer.
The photoprotecting efficacy was determined by comparing the viability obtained in the cells treated with 7-methoxy-6-palmitoyl-2,2-dimethylchromane in relation to the response of the irradiated and non-irradiated control cells.

In the case of `CCCCCCCCCCCCCCCC(=O)c1cc2c(cc1OC)OC(C)(C)CC2` [7-methoxy-6-palmitoyl-2,2-dimethylchromane], the “% MELANIN” value turned out to be 63.0% in the experiment with mushroom tyrosinase (1 mM compound) and 57.0% in experiment [1]. The “% DEPIGMENTING EFFICACY” value in the experiment with human melanocytes was 45.9%. The “PHOTOPROTECTTNG EFFICACY” value in the experiment with human keratinocytes (viability of treated cells compared with irradiated and non-irradiated control cells) is 254.9%. Besides, in the experiment with human keratinocytes (Homo sapiens, Keratinocyte, light or radiation study, 1 h pre-incubation, irradiated 37 J/cm^2 for 150 min, 24 h later, non-irradiated control 100%, irradiated control 13.8%, read-out: CELL VIABILITY), the viability at 150 µg/mL was 49.1%.
Regarding `O=c1cc(CO)occ1O` [Kojic acid, reference compound], in the experiment with mushroom tyrosinase (0.1 mM compound), the “% MELANIN” value was 44.5%. In addition, the “% DEPIGMENTING EFFICACY” value in the experiment on human melanocytes stood at 30.2%.
As to `COc1cc2c(cc1O)CCC(C)(C)O2` [Lipochroman-6, 6-hydroxy-7-methoxy-2,2-dimethylchromane, reference compound], the figures for the “% MELANIN” value (in the experiment on mushroom tyrosinase (1 mM compound); in experiment [1]) were 96.6% and 79.8%, respectively.

As a reminder, the viability is a per cent measure of how many cells are alive, often set against a control.
